Data as given in ChEMBL document CHEMBL3112480, “γ-Alkylidene-γ-lactones and isobutylpyrrol-2(5H)-ones analogues to rubrolides as inhibitors of biofilm formation by gram-positive and gram-negative bacteria” (Bioorg Med Chem Lett, 2014).
Converted amounts (≈) assume the structure as drawn. Blank lines part the entries; values can stand above or below the compound they belong to.

Assays:
Staphylococcus aureus [1] = assay: Antibacterial activity against Staphylococcus aureus ATCC 25923 assessed as effect on planktonic growth at 0.17 ug/ml after 20 hrs relative to control; format: functional
Pseudomonas aeruginosa [2] = assay: Antibacterial activity against Pseudomonas aeruginosa ATCC 27853 assessed as effect on planktonic growth at 1.37 ug/ml after 20 hrs relative to control; format: functional
[3] = system: Staphylococcus epidermidis; assay: Antibacterial activity against Staphylococcus epidermidis ATCC 35547 assessed as effect on planktonic growth at 5.5 ug/ml after 20 hrs relative to control; format: functional
Pseudomonas aeruginosa [4] = assay: Antibacterial activity against Pseudomonas aeruginosa ATCC 27853 assessed as inhibition of biofilm formation after 20 hrs by crystal-violet staining method; format: functional, organism-based; conditions: for IC50: ATCC 27853, 20 h
Pseudomonas aeruginosa [5] = assay: Antibacterial activity against Pseudomonas aeruginosa ATCC 27853 assessed as effect on planktonic growth at 2.73 ug/ml after 20 hrs relative to control; format: functional
Streptococcus mutans [6] = assay: Antibacterial activity against Streptococcus mutans ATCC 25175 assessed as effect on planktonic growth at 87.5 ug/ml after 20 hrs relative to control; format: functional
Pseudomonas aeruginosa [7] = assay: Antibacterial activity against Pseudomonas aeruginosa ATCC 27853 assessed as effect on planktonic growth at 10.9 ug/ml after 20 hrs relative to control; format: functional
Staphylococcus aureus [8] = assay: Antibacterial activity against Staphylococcus aureus ATCC 25923 assessed as effect on planktonic growth at 1.37 ug/ml after 20 hrs relative to control; format: functional
Pseudomonas aeruginosa [9] = assay: Antibacterial activity against Pseudomonas aeruginosa ATCC 27853 assessed as effect on planktonic growth at 0.34 ug/ml after 20 hrs relative to control; format: functional
Streptococcus mutans [10] = assay: Antibacterial activity against Streptococcus mutans ATCC 25175 assessed as effect on planktonic growth at 43.8 ug/ml after 20 hrs relative to control; format: functional
[11] = system: Staphylococcus epidermidis; assay: Antibacterial activity against Staphylococcus epidermidis ATCC 35547 assessed as inhibition of biofilm formation after 20 hrs by crystal-violet staining method; format: functional, organism-based; conditions: for IC50: ATCC 35547, 20 h
Staphylococcus aureus [12] = assay: Antibacterial activity against Staphylococcus aureus ATCC 25923 assessed as effect on planktonic growth at 0.68 ug/ml after 20 hrs relative to control; format: functional
Pseudomonas aeruginosa [13] = assay: Antibacterial activity against Pseudomonas aeruginosa ATCC 27853 assessed as effect on planktonic growth at 21.9 ug/ml after 20 hrs relative to control; format: functional
[14] = system: Staphylococcus epidermidis; assay: Antibacterial activity against Staphylococcus epidermidis ATCC 35547 assessed as effect on planktonic growth at 21.9 ug/ml after 20 hrs relative to control; format: functional
[15] = system: Staphylococcus epidermidis; assay: Antibacterial activity against Staphylococcus epidermidis ATCC 35547 assessed as effect on planktonic growth at 0.34 ug/ml after 20 hrs relative to control; format: functional
Staphylococcus aureus [16] = assay: Antibacterial activity against Staphylococcus aureus ATCC 25923 assessed as effect on planktonic growth at 21.9 ug/ml after 20 hrs relative to control; format: functional
Streptococcus mutans [17] = assay: Antibacterial activity against Streptococcus mutans ATCC 25175 assessed as effect on planktonic growth at 0.17 ug/ml after 20 hrs relative to control; format: functional
Staphylococcus aureus [18] = assay: Antibacterial activity against Staphylococcus aureus ATCC 25923 assessed as effect on planktonic growth at 10.9 ug/ml after 20 hrs relative to control; format: functional
[19] = system: Staphylococcus epidermidis; assay: Antibacterial activity against Staphylococcus epidermidis ATCC 35547 assessed as effect on planktonic growth at 10.9 ug/ml after 20 hrs relative to control; format: functional
[20] = system: Staphylococcus epidermidis; assay: Antibacterial activity against Staphylococcus epidermidis ATCC 35547 assessed as effect on planktonic growth at 0.68 ug/ml after 20 hrs relative to control; format: functional
Streptococcus mutans [21] = assay: Antibacterial activity against Streptococcus mutans ATCC 25175 assessed as effect on planktonic growth at 5.5 ug/ml after 20 hrs relative to control; format: functional
Staphylococcus aureus [22] = assay: Antibacterial activity against Staphylococcus aureus ATCC 25923 assessed as effect on planktonic growth at 43.8 ug/ml after 20 hrs relative to control; format: functional
Pseudomonas aeruginosa [23] = assay: Antibacterial activity against Pseudomonas aeruginosa ATCC 27853 assessed as effect on planktonic growth at 0.17 ug/ml after 20 hrs relative to control; format: functional
[24] = system: Staphylococcus epidermidis; assay: Antibacterial activity against Staphylococcus epidermidis ATCC 35547 assessed as effect on planktonic growth at 1.37 ug/ml after 20 hrs relative to control; format: functional
Pseudomonas aeruginosa [25] = assay: Antibacterial activity against Pseudomonas aeruginosa ATCC 27853 assessed as effect on planktonic growth at 5.5 ug/ml after 20 hrs relative to control; format: functional
Streptococcus mutans [26] = assay: Antibacterial activity against Streptococcus mutans ATCC 25175 assessed as effect on planktonic growth at 0.68 ug/ml after 20 hrs relative to control; format: functional
Streptococcus mutans [27] = assay: Antibacterial activity against Streptococcus mutans ATCC 25175 assessed as effect on planktonic growth at 1.37 ug/ml after 20 hrs relative to control; format: functional
Staphylococcus aureus [28] = assay: Antibacterial activity against Staphylococcus aureus ATCC 25923 assessed as effect on planktonic growth at 2.73 ug/ml after 20 hrs relative to control; format: functional
[29] = system: Staphylococcus epidermidis; assay: Antibacterial activity against Staphylococcus epidermidis ATCC 35547 assessed as effect on planktonic growth at 87.5 ug/ml after 20 hrs relative to control; format: functional
Staphylococcus aureus [30] = assay: Antibacterial activity against Staphylococcus aureus ATCC 25923 assessed as effect on planktonic growth at 0.34 ug/ml after 20 hrs relative to control; format: functional
[31] = system: Staphylococcus epidermidis; assay: Antibacterial activity against Staphylococcus epidermidis ATCC 35547 assessed as effect on planktonic growth at 43.8 ug/ml after 20 hrs relative to control; format: functional
Streptococcus mutans [32] = assay: Antibacterial activity against Streptococcus mutans ATCC 25175 assessed as effect on planktonic growth at 10.9 ug/ml after 20 hrs relative to control; format: functional
Streptococcus mutans [33] = assay: Antibacterial activity against Streptococcus mutans ATCC 25175 assessed as effect on planktonic growth at 21.9 ug/ml after 20 hrs relative to control; format: functional
Streptococcus mutans [34] = assay: Antibacterial activity against Streptococcus mutans ATCC 25175 assessed as effect on planktonic growth at 2.73 ug/ml after 20 hrs relative to control; format: functional
Staphylococcus aureus [35] = assay: Antibacterial activity against Staphylococcus aureus ATCC 25923 assessed as effect on planktonic growth at 87.5 ug/ml after 20 hrs relative to control; format: functional
Pseudomonas aeruginosa [36] = assay: Antibacterial activity against Pseudomonas aeruginosa ATCC 27853 assessed as effect on planktonic growth at 0.68 ug/ml after 20 hrs relative to control; format: functional
[37] = system: Staphylococcus epidermidis; assay: Antibacterial activity against Staphylococcus epidermidis ATCC 35547 assessed as effect on planktonic growth at 2.73 ug/ml after 20 hrs relative to control; format: functional
[38] = system: Staphylococcus epidermidis; assay: Antibacterial activity against Staphylococcus epidermidis ATCC 35547 assessed as effect on planktonic growth at 0.17 ug/ml after 20 hrs relative to control; format: functional
Pseudomonas aeruginosa [39] = assay: Antibacterial activity against Pseudomonas aeruginosa ATCC 27853 assessed as effect on planktonic growth at 87.5 ug/ml after 20 hrs relative to control; format: functional
Pseudomonas aeruginosa [40] = assay: Antibacterial activity against Pseudomonas aeruginosa ATCC 27853 assessed as effect on planktonic growth at 43.8 ug/ml after 20 hrs relative to control; format: functional
Streptococcus mutans [41] = assay: Antibacterial activity against Streptococcus mutans ATCC 25175 assessed as effect on planktonic growth at 0.34 ug/ml after 20 hrs relative to control; format: functional
Staphylococcus aureus [42] = assay: Antibacterial activity against Staphylococcus aureus ATCC 25923 assessed as effect on planktonic growth at 5.5 ug/ml after 20 hrs relative to control; format: functional

IC50 (Pseudomonas aeruginosa [4]): > 87.5 µg/mL
IC50 [11]: 31.1 µg/mL (≈ 59.2 µM)
SMILES: COc1ccc(Br)cc1C1=C(Br)C(=O)N(CC(C)C)/C1=C\c1cccc(Cl)c1
Activity (Staphylococcus aureus [1]): -3.5%
Activity (Pseudomonas aeruginosa [2]): 3%
Activity [3]: 2.1%
inhibition (Pseudomonas aeruginosa [4]): Dose-dependent effect
Activity (Pseudomonas aeruginosa [5]): 0.1%
Activity (Streptococcus mutans [6]): -4%
Activity (Pseudomonas aeruginosa [7]): -9%
Activity (Staphylococcus aureus [8]): -7.2%
Activity (Pseudomonas aeruginosa [9]): -4.4%
Activity (Streptococcus mutans [10]): -15.3%
inhibition [11]: Dose-dependent effect
Activity (Staphylococcus aureus [12]): 1.1%
Activity (Pseudomonas aeruginosa [13]): -4.8%
Activity [14]: 57.9%
Activity [15]: 6.4%
Activity (Staphylococcus aureus [16]): 5.1%
Activity (Streptococcus mutans [17]): -1.2%
Activity (Staphylococcus aureus [18]): 2.4%
Activity [19]: 23.2%
Activity [20]: 5.6%
Activity (Streptococcus mutans [21]): 1.5%
Activity (Staphylococcus aureus [22]): 16.3%
Activity (Pseudomonas aeruginosa [23]): 0.6%
Activity [24]: 9.8%
Activity (Pseudomonas aeruginosa [25]): -3.1%
Activity (Streptococcus mutans [26]): 11.4%
Activity (Streptococcus mutans [27]): 2.7%
Activity (Staphylococcus aureus [28]): -2.7%
Activity [29]: 72.2%
Activity (Staphylococcus aureus [30]): -1.1%
Activity [31]: 84.7%
Activity (Streptococcus mutans [32]): -19.1%
Activity (Streptococcus mutans [33]): -10.1%
Activity (Streptococcus mutans [34]): -6.2%
Activity (Staphylococcus aureus [35]): 18.4%
Activity (Pseudomonas aeruginosa [36]): -0.3%
Activity [37]: 6.8%
Activity [38]: 2.2%
Activity (Pseudomonas aeruginosa [39]): 14.6%
Activity (Pseudomonas aeruginosa [40]): -5.6%
Activity (Streptococcus mutans [41]): 6.7%
Activity (Staphylococcus aureus [42]): 0.5%

IC50 (Pseudomonas aeruginosa [4]): > 87.5 µg/mL
IC50 [11]: > 87.5 µg/mL
SMILES: COc1ccc(C)cc1C1=C(Br)C(=O)N(CC(C)C)C1(O)Cc1ccccc1Cl (stereo not drawn)
Activity (Staphylococcus aureus [1]): -1.25%
Activity (Pseudomonas aeruginosa [2]): -7.4%
Activity [3]: 16.5%
inhibition (Pseudomonas aeruginosa [4]): Dose-dependent effect
Activity (Pseudomonas aeruginosa [5]): -20.3%
Activity (Streptococcus mutans [6]): 15.3%
Activity (Pseudomonas aeruginosa [7]): -17.5%
Activity (Staphylococcus aureus [8]): -3%
Activity (Pseudomonas aeruginosa [9]): -4.5%
Activity (Streptococcus mutans [10]): 27.2%
inhibition [11]: Dose-dependent effect
Activity (Staphylococcus aureus [12]): -2.5%
Activity (Pseudomonas aeruginosa [13]): -5.6%
Activity [14]: 34.6%
Activity [15]: 24.8%
Activity (Staphylococcus aureus [16]): -10.75%
Activity (Streptococcus mutans [17]): 7.3%
Activity (Staphylococcus aureus [18]): -6.75%
Activity [19]: 22.6%
Activity [20]: 2.7%
Activity (Streptococcus mutans [21]): 35.6%
Activity (Staphylococcus aureus [22]): 2.25%
Activity (Pseudomonas aeruginosa [23]): -2.5%
Activity [24]: 6.4%
Activity (Pseudomonas aeruginosa [25]): -17.6%
Activity (Streptococcus mutans [26]): 13%
Activity (Streptococcus mutans [27]): 12.6%
Activity (Staphylococcus aureus [28]): 0.5%
Activity [29]: 60.7%
Activity (Staphylococcus aureus [30]): -0.5%
Activity [31]: 48.3%
Activity (Streptococcus mutans [32]): 28.7%
Activity (Streptococcus mutans [33]): 39.8%
Activity (Streptococcus mutans [34]): 30.7%
Activity (Staphylococcus aureus [35]): 16.5%
Activity (Pseudomonas aeruginosa [36]): -4.7%
Activity [37]: 2.8%
Activity [38]: 6%
Activity (Pseudomonas aeruginosa [39]): 32.5%
Activity (Pseudomonas aeruginosa [40]): 17.1%
Activity (Streptococcus mutans [41]): 11.1%
Activity (Staphylococcus aureus [42]): 5%
